Patent US20240166626A1, “Compounds and Methods for Preventing, Treating, or Ameliorating Airway Disease” (THOMAS JEFFERSON UNIVERSITY, priority 2021, published 2024)

Molecular target: β1AR (Homo sapiens, UniProt P08588)
Assay: BRET analysis of β-arrestin2 interaction with β1AR in HEK 293 cells
Assay type: cell-based
Details: 10 μM DFPQ, FIG. 2B
Method: FIGS. 2A-2C: […] Cells were read every 2 min post agonist addition. […]® ADRB2 cells (DiscoveRx) were maintained with the AssayCompleteTM Cell Culture kit (DiscoveRx catalog #92-[…]). […] HEK 293 cells stably overexpressing β2AR included 250 μg/ml G418. Cells were incubated at 37° C. in a humidified incubator with 5% CO2. […] Cells were read every three minutes for 18 minutes on a PolarStar Optima plate reader (BMG) to establish peak signal. […] Plates were incubated in the dark at room temperature for one hour. Luminescence was determined at room temperature (23-25° C.) on a PolarStar Optima plate reader (BMG). […] Screening data analysis and IC50 determination. […] Relative assay bias was calculated from the ratio of normalized cAMP and arrestin recruitment responses. […] BRET was measured using a Tecan Infinite F500 microplate reader. […] Bound [35 S]GTPγS was collected by rapid filtration on GF/B filters, washed 4 times with 4 ml of cold GTPγS wash buffer and analyzed by liquid scintillation counting. […] Immunoprecipitated proteins were separated by SDS-PAGE and analyzed by western blot using a β2AR C-terminal tail or phospho-specific antibody. […] Band intensity was measured by densitometry using ImageJ. […] Absorbance was then measured on a plate reader at 405 nm. […] Lungs were monitored for appropriate inflation. […] Images were analyzed post hoc using the ImageJ software. […] Cell-free area was quantitated using ImageJ. […]

β1AR, sequence (P08588 whole entry): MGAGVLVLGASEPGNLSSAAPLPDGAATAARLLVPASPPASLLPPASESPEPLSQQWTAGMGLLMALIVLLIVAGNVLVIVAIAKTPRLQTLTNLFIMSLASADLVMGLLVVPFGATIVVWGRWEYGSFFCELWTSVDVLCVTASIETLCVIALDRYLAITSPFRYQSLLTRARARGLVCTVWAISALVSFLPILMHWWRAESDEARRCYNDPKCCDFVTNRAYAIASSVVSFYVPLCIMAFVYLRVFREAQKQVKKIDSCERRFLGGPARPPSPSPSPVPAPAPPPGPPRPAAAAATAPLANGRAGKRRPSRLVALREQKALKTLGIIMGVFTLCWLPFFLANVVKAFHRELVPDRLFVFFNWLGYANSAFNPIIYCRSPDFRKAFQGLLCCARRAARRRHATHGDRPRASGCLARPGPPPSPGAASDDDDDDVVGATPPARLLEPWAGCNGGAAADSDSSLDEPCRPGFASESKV

β-arrestin2 interaction with the β1AR: not significantly inhibited
Structure (SMILES): Fc1ccc(Nc2nc(NC3CCCCC3)c3ccccc3n2)cc1F [DFPQ, N^4-cyclohexyl-N^2-(3,4-difluorophenyl)quinazoline-2,4-diamine]
